This note sets out measurements from US6936602B1, “Benzazepine derivatives, process for the preparation of the same and uses thereof” (Takeda Chemical Industries, Ltd., priority 1999, dated 2005).

Each structure is given as a SMILES string.

As to `CCCOCCOc1ccc(-c2ccc3c(c2)C=C(C(=O)Nc2ccc(CN(C)C4CCOCC4)cc2)CCN3Cc2ccc(OC)cc2)cc1` [Compound 55, 1-(4-methoxybenzyl)-N-[4-[[N-methyl-N-(tetrahydropyran-4-yl)amino]methyl]phenyl]-7-(4-propoxyethoxyphenyl)-2,3-dihydro-1-benzazepine-4-carboxamide], the melting point (in general, the temperature, or range, at which the solid turns liquid) was 160 to 161 °C.

With `CCCCOCCOc1ccc(-c2ccc3c(c2)C=C(C(=O)Nc2ccc(CN(C)C4CCOCC4)cc2)CCN3Cc2cccs2)cc1` [Compound 60, 7-(4-butoxyethoxyphenyl)-N-[4-[[N-methyl-N-(tetrahydropyran-4-yl)amino]methyl]phenyl]-1-(2-thienylmethyl)-2,3-dihydro-1-benzazepine-4-carboxamide], the melting point was 84 to 85 °C.

Turning to `CCCOCCOc1ccc(-c2ccc3c(c2)C=C(C(=O)Nc2ccc(CN(C)C4CCOCC4)cc2)CCN3Cc2ccoc2)cc1` [Compound 61, 1-(3-furylmethyl)-N-[4-[[N-methyl-N-(tetrahydropyran-4-yl)amino]methyl]phenyl]-7-(4-propoxyethoxyphenyl)-2,3-dihydro-1-benzazepine-4-carboxamide], the melting point lay in the range of 115 to 116 °C.

In the case of `CCCOCCOc1ccc(-c2ccc3c(c2)C=C(C(=O)Nc2ccc(CN(C)C4CCOCC4)cc2)CCN3Cc2cccs2)cc1` [Compound 59, N-[4-[[N-methyl-N-(tetrahydropyran-4-yl)amino]methyl]phenyl]-7-(4-propoxyethoxyphenyl)-1-(2-thienylmethyl)-2,3-dihydro-1-benzazepine-4-carboxamide], the melting point lay in the range of 104.5 to 105.5 °C.

For `CCOCCOc1ccc(-c2ccc3c(c2)C=C(C(=O)Nc2ccc(CN(C)C4CCOCC4)cc2)CCN3C)cc1` [Compound 9, 7-[4-(2-ethoxyethoxy)phenyl]-1-methyl-N-[4-[[N-methyl-N-(tetrahydro-2H-pyran-4-yl)amino]methyl]phenyl]-2,3-dihydro-1H-1-benzazepine-4-carboxamide], the melting point fell in the range of 122 to 125 °C.

With `CCOCCN(C)c1ccc(-c2ccc3c(c2)C=C(C(=O)Nc2ccc(CN(C)C4CCOCC4)cc2)CCN3C=O)cc1` [Compound 4, 7-[4-[N-(2-ethoxyethyl)-N-methylamino]phenyl]-1-formyl-N-[4-[[N-methyl-N-(tetrahydro-2H-pyran-4-yl)amino]methyl]phenyl]-2,3-dihydro-1H-1-benzazepine-4-carboxamide], the melting point was in the range of 157 to 158 °C.

`CCOCCCOc1ccc(-c2ccc3c(c2)C=C(C(=O)Nc2ccc(CN(C)C4CCOCC4)cc2)CCN3C)cc1` [Compound 13, 7-[4-(3-ethoxypropoxy)phenyl]-1-methyl-N-[4-[[N-methyl-N-(tetrahydro-2H-pyran-4-yl)amino]methyl]phenyl]-2,3-dihydro-1H-1-benzazepine-4-carboxamide]: the melting point was in the range of 98 to 100 °C.

`CCCOCCOc1ccc(-c2ccc3c(c2)C=C(C(=O)Nc2ccc(CN(C)C4CCOCC4)cc2)CCN3C)cc1` [Compound 12, 1-methyl-N-[4-[[N-methyl-N-(tetrahydro-2H-pyran-4-yl)amino]methyl]phenyl]-7-[4-(2-propoxyethoxy)phenyl]-2,3-dihydro-1H-benzazepine-4-carboxamide] yielded a melting point of 136 to 138 °C.

Consider `CCCCOCCOc1ccc(-c2ccc3c(c2)C=C(C(=O)Nc2ccc(CN(C)C4CCOCC4)cc2)CCN3C)cc1` [Compound 18, 7-[4-(2-butoxyethoxy)phenyl]-1-methyl-N-[4-[[N-methyl-N-(tetrahydro-2H-pyran-4-yl)amino]methyl]phenyl]-2,3-dihydro-1H-1-benzazepine-4-carboxamide], for which the melting point was 107 to 110 °C.

`CCCOCCOc1ccc(-c2ccc3c(c2)C=C(C(=O)Nc2ccc(CN(C)C4CCOCC4)cc2)CCN3Cc2ccsc2)cc1` [Compound 57, N-[4-[[N-methyl-N-(tetrahydropyran-4-yl)amino]methyl]phenyl]-7-(4-propoxyethoxyphenyl)-1-(3-thienylmethyl)-2,3-dihydro-1-benzazepine-4-carboxamide] returned a melting point of 131.5 to 132.5 °C.

Consider `CCCCOCCOc1ccc(-c2ccc3c(c2)C=C(C(=O)Nc2ccc(CN(C)C4CCOCC4)cc2)CCN3Cc2ccccc2OCC)cc1` [Compound 63, 7-(4-butoxyethoxyphenyl)-1-(2-ethoxybenzyl)-N-[4-[[N-methyl-N-(tetrahydropyran-4-yl)amino]methyl]phenyl]-2,3-dihydro-1-benzazepine-4-carboxamide], for which the melting point fell in the range of 104.5 to 105.5 °C.

Regarding `CCCOCCOc1ccc(-c2ccc3c(c2)C=C(C(=O)Nc2ccc(CN(C)C4CCOCC4)cc2)CCN3Cc2ccccc2OC)cc1` [Compound 51, 1-(2-methoxybenzyl)-N-[4-[[N-methyl-N-(tetrahydropyran-4-yl)amino]methyl]phenyl]-7-(4-propoxyethoxyphenyl)-2,3-dihydro-1-benzazepine-4-carboxamide], the melting point fell in the range of 118 to 119 °C.

As for `CCCCOCCOc1ccc(-c2ccc3c(c2)C=C(C(=O)Nc2ccc(CN(C)C4CCOCC4)cc2)CCN3c2cccc(OC)c2)cc1` [Compound 40, 7-[4-(2-butoxyethoxy)phenyl]-1-(3-methoxyphenyl)-N-(4-[[N-methyl-N-(tetrahydro-2H-pyran-4-yl)amino]methyl]phenyl]-2,3-dihydro-1H-1-benzazepine-4-carboxamide], the melting point lay in the range of 94 to 97 °C.

On to `CCCCOCCOc1ccc(-c2ccc3c(c2)C=C(C(=O)Nc2ccc(CN(C)C4CCOCC4)cc2)CCN3CC2CCCCC2)cc1` [Compound 34, 7-[4-(2-butoxyethoxy)phenyl]-1-cyclohexylmethyl-N-[4-[[N-methyl-N-(tetrahydro-2H-pyran-4-yl)amino]methyl]phenyl]-2,3-dihydro-1H-1-benzazepine-4-carboxamide], for which the melting point is 115 to 117 °C.

`CCCCOCCOc1ccc(-c2ccc3c(c2)C=C(C(=O)Nc2ccc(CN(C)C4CCOCC4)cc2)CCN3Cc2cc(OC)ccc2OC)cc1` [Compound 65, 7-(4-butoxyethoxyphenyl)-1-(2,5-dimethoxybenzyl)-N-[4-[[N-methyl-N-(tetrahydropyran-4-yl)amino]methyl]phenyl]-2,3-dihydro-1-benzazepine-4-carboxamide] gave a melting point of 143 to 144 °C.

`CCCCOCCOc1ccc(-c2ccc3c(c2)C=C(C(=O)Nc2ccc(CN(C)C4CCOCC4)cc2)CCN3C2CC2)cc1` [Compound 31, 7-[4-(2-butoxyethoxy)phenyl]-1-cyclopropyl-N-[4-[[N-methyl-N-(tetrahydro-2H-pyran-4-yl)amino]methyl]phenyl]-2,3-dihydro-1H-1-benzazepine-4-carboxamide] came in with a melting point of 117 to 120 °C.

Turning to `CCCCOCCOc1ccc(-c2ccc3c(c2)C=C(C(=O)Nc2ccc(CN(C)C4CCOCC4)cc2)CCN3Cc2ccoc2)cc1` [Compound 62, 7-(4-butoxyethoxyphenyl)-1-(3-furylmethyl)-N-[4-[[N-methyl-N-(tetrahydropyran-4-yl)amino]methyl]phenyl]-2,3-dihydro-1-benzazepine-4-carboxamide], the melting point was 116 to 117 °C.

Consider `CCOCCOc1ccc(-c2ccc3c(c2)C=C(C(=O)Nc2ccc(CN(C)C4CCOCC4)cc2)CCN3C=O)cc1Cl` [Compound 21, 7-[3-chloro4-(2-ethoxy)ethoxyphenyl]-1-formyl-N-[4-[[N-methyl-N-(tetrahydro-2H-pyran-4-yl)amino]methyl]phenyl]-2,3-dihydro-1H-1-benzazepine-4-carboxamide], for which the melting point lay in the range of 198 to 200 °C.
